Source: PubChem BioAssay (NCI)
Converted amounts (≈) assume the structure as drawn.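 In this assay, cells in 96-well plates receive the compound at five concentrations for 48 hours. Endpoints are linearly interpolated between the surrounding concentrations. GI50 is the concentration that inhibits growth by half. The concentration for full growth arrest is given as TGI.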 Where a SMILES comes first, the peptide text is derived from it.

Experiments:
Experiment in all cases: DTP human tumour cell line panel, 48 h
TK-10 renal = test system: TK-10 renal
NCI-H23 lung = test system: NCI-H23 lung
MDA-MB-231 breast = test system: MDA-MB-231 breast
T-47D breast = test system: T-47D breast
COLO 205 colon = test system: COLO 205 colon
CCRF-CEM leukemia = test system: CCRF-CEM leukemia
UACC-62 melanoma = test system: UACC-62 melanoma
OVCAR-8 ovarian = test system: OVCAR-8 ovarian
MDA-MB-435 = test system: MDA-MB-435
A498 renal = test system: A498 renal
MCF7 breast = test system: MCF7 breast
SN12C renal = test system: SN12C renal
M14 melanoma = test system: M14 melanoma
SK-MEL-28 melanoma = test system: SK-MEL-28 melanoma
SW-620 colon = test system: SW-620 colon
NCI-H226 lung = test system: NCI-H226 lung
DU-145 prostate = test system: DU-145 prostate
SK-OV-3 ovarian = test system: SK-OV-3 ovarian
A549 NSCLC = test system: A549 NSCLC
RXF 393 renal = test system: RXF 393 renal
EKVX NSCLC = test system: EKVX NSCLC
HL-60(TB) leukemia = test system: HL-60(TB) leukemia
U251 CNS = test system: U251 CNS
SK-MEL-5 melanoma = test system: SK-MEL-5 melanoma
HS 578T breast = test system: HS 578T breast
UACC-257 melanoma = test system: UACC-257 melanoma
KM12 colon = test system: KM12 colon
SNB-19 CNS = test system: SNB-19 CNS
NCI-H460 lung = test system: NCI-H460 lung
HT29 colon = test system: HT29 colon
SNB-75 CNS = test system: SNB-75 CNS
ACHN renal = test system: ACHN renal
HOP-62 NSCLC = test system: HOP-62 NSCLC
SF-295 CNS = test system: SF-295 CNS
OVCAR-5 ovarian = test system: OVCAR-5 ovarian
NCI/ADR-RES ovarian = test system: NCI/ADR-RES ovarian
786-0 renal = test system: 786-0 renal
OVCAR-4 ovarian = test system: OVCAR-4 ovarian
K-562 leukemia = test system: K-562 leukemia
UO-31 renal = test system: UO-31 renal
SR leukemia = test system: SR leukemia
RPMI-8226 leukemia = test system: RPMI-8226 leukemia
IGROV1 ovarian = test system: IGROV1 ovarian
MALME-3M melanoma = test system: MALME-3M melanoma
HCT-116 colon = test system: HCT-116 colon
HCC-2998 colon = test system: HCC-2998 colon
HCT-15 colon = test system: HCT-15 colon
SF-539 CNS = test system: SF-539 CNS
LOX IMVI melanoma = test system: LOX IMVI melanoma
SK-MEL-2 melanoma = test system: SK-MEL-2 melanoma
NCI-H522 lung = test system: NCI-H522 lung
HOP-92 NSCLC = test system: HOP-92 NSCLC

Q: What does the source list for `COc1ccc(-n2nnnc2C2(Nc3ccccc3)CCN(Cc3ccccc3)CC2)cc1`?
A: TGI (TK-10 renal): 40.9 µM; TGI (NCI-H23 lung): 57.9 µM; TGI (MDA-MB-231 breast): 32.3 µM; TGI (T-47D breast): 45.2 µM; TGI (COLO 205 colon): 20 µM; TGI (CCRF-CEM leukemia): > 100 µM; TGI (UACC-62 melanoma): 31.1 µM; TGI (OVCAR-8 ovarian): 54.6 µM; TGI (MDA-MB-435): 15.4 µM; TGI (A498 renal): 48.7 µM; TGI (MCF7 breast): 23.3 µM; TGI (SN12C renal): 28 µM; TGI (M14 melanoma): 32 µM; TGI (SK-MEL-28 melanoma): 26.6 µM; TGI (SW-620 colon): 38.3 µM; TGI (NCI-H226 lung): > 100 µM; TGI (DU-145 prostate): > 100 µM; TGI (SK-OV-3 ovarian): 86.2 µM; TGI (A549 NSCLC): 45.8 µM; TGI (RXF 393 renal): 33.8 µM; TGI (EKVX NSCLC): 92 µM; TGI (HL-60(TB) leukemia): 8.14 µM; TGI (U251 CNS): > 100 µM; TGI (SK-MEL-5 melanoma): 24.6 µM; TGI (HS 578T breast): 28.8 µM; TGI (UACC-257 melanoma): 28.9 µM; TGI (KM12 colon): 18.8 µM; TGI (SNB-19 CNS): 68.5 µM; TGI (NCI-H460 lung): 42 µM; TGI (HT29 colon): 21.3 µM; TGI (SNB-75 CNS): 44.7 µM; TGI (ACHN renal): > 100 µM; TGI (HOP-62 NSCLC): 56.2 µM; TGI (SF-295 CNS): 28.9 µM; TGI (OVCAR-5 ovarian): 48.8 µM; TGI (NCI/ADR-RES ovarian): 51 µM; TGI (786-0 renal): 28 µM; TGI (OVCAR-4 ovarian): > 100 µM; TGI (K-562 leukemia): 15.4 µM; TGI (UO-31 renal): 38.9 µM; TGI (SR leukemia): > 100 µM; TGI (RPMI-8226 leukemia): 48.5 µM; TGI (IGROV1 ovarian): 41.2 µM; TGI (MALME-3M melanoma): 27.3 µM; TGI (HCT-116 colon): 26.2 µM; TGI (HCC-2998 colon): 14 µM; TGI (HCT-15 colon): 25.1 µM; TGI (SF-539 CNS): 34.6 µM; TGI (LOX IMVI melanoma): 24 µM

Q: How did the GI50 (UACC-62 melanoma) turn out when `CC(=O)NC(C(=O)N1CCCC1C(=O)O)C(C)C` (stereo not drawn) (Ac-Val-Pro-OH; configuration not given here) was run?
A: 22.4 µg/mL (≈ 87.5 µM)

Q: And the TGI (UACC-62 melanoma)?
A: 72.4 µg/mL

Q: What about the GI50 (SNB-75 CNS) of the same compound?
A: 0.032 µg/mL

Q: What about the TGI (SNB-75 CNS) of the same compound?
A: 66.7 µg/mL

Q: For `N=C(N)c1ccc(-c2ccc(-c3cc(Cl)cc(Cl)c3)s2)nc1`, which GI50 (T-47D breast) is on record?
A: 2.12 µM

Q: What about the TGI (T-47D breast) of the same compound?
A: 4.99 µM

Q: What about the GI50 (CCRF-CEM leukemia) of the same compound?
A: 2.39 µM

Q: And the TGI (CCRF-CEM leukemia)?
A: 5.86 µM

Q: And the GI50 (SK-MEL-2 melanoma)?
A: 2.7 µM

Q: What about the TGI (SK-MEL-2 melanoma) of the same compound?
A: 7.02 µM

Q: And the GI50 (DU-145 prostate)?
A: 1.88 µM

Q: What about the TGI (DU-145 prostate) of the same compound?
A: 3.33 µM

Q: What about the GI50 (SK-OV-3 ovarian) of the same compound?
A: 2.6 µM

Q: What about the TGI (SK-OV-3 ovarian) of the same compound?
A: 8.15 µM

Q: And the GI50 (A549 NSCLC)?
A: 2.07 µM

Q: And the TGI (A549 NSCLC)?
A: 4.56 µM

Q: And the GI50 (HL-60(TB) leukemia)?
A: 2.12 µM

Q: What about the TGI (HL-60(TB) leukemia) of the same compound?
A: 4.95 µM

Q: What about the GI50 (NCI-H522 lung) of the same compound?
A: 2.16 µM

Q: What about the TGI (NCI-H522 lung) of the same compound?
A: 4.73 µM

Q: And the GI50 (SNB-75 CNS)?
A: 1.47 µM

Q: And the TGI (SNB-75 CNS)?
A: 3.03 µM

Q: And the GI50 (OVCAR-5 ovarian)?
A: 1.68 µM

Q: What about the TGI (OVCAR-5 ovarian) of the same compound?
A: 3.05 µM

Q: And the GI50 (RPMI-8226 leukemia)?
A: 2.31 µM

Q: And the TGI (RPMI-8226 leukemia)?
A: 5.26 µM

Q: And the GI50 (HOP-92 NSCLC)?
A: 3.43 µM

Q: What about the TGI (HOP-92 NSCLC) of the same compound?
A: 19.4 µM
